From ChEMBL document CHEMBL1127996, “Structure and synthesis of clausenaquinone-a. A novel carbazolequinone alkaloid and bioactive principle from Clausena excavata” (Bioorg Med Chem Lett, 1994)
Values after ≈ are worked out from the molar mass of the structure shown.

Tests used:
RPMI-7951 = assay: Cytotoxicity in RPMI-7951 cell line; type: functional, cell-based; conditions: Homo sapiens
HCT-8 = assay: Cytotoxicity in HCT-8 cell line; type: functional, cell-based; conditions: Homo sapiens
TE-671 = assay: Cytotoxicity in TE671 cell line; type: functional, cell-based; conditions: Homo sapiens
P388 = assay: Cytotoxicity in P-388 cell line; type: functional, cell-based; conditions: Mus musculus
Oryctolagus cuniculus = species on record: Oryctolagus cuniculus; assay: Compound was tested for inhibition of platelet aggregation induced by arachidonic acid(100 uM) at a dose of 10 ug/mL in rabbit; type: functional

Structure (SMILES) | IC50 (RPMI-7951) [µg/mL] | IC50 (HCT-8) [µg/mL] | IC50 (TE-671) [µg/mL] | IC50 (P388) [µg/mL] | Inhibition (Oryctolagus cuniculus) [%]
COC1=CC(=O)c2[nH]c3cc(O)c(C)cc3c2C1=O | 0.22 (≈ 0.855 µM) | 0.92 (≈ 3.58 µM) | 3.82 (≈ 14.8 µM) | – | –
COC1=CC(=O)c2[nH]c3ccc(C)c(O)c3c2C1=O | 0.33 (≈ 1.28 µM) | 1.82 (≈ 7.07 µM) | 0.17 (≈ 0.661 µM) | 2.24 (≈ 8.71 µM) | 100
